In PubChem BioAssay AID1963853 (Molecular Pharmacology Branch, DTP, NCI, 2024):

Test system: 266295-075-R-J1-PDC spheroid viability
Test: Anticancer human tumor 266295-075-R-J1-PDC patient-derived head and neck squamous carcinoma cell line growth inhibition [POLQ]
Details: spheroids with HUVEC and MSC; for IC50: curve of first compound; for viability, T/C: stronger effect = lower value
How it was run: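 Growth inhibition in 3D: complex spheroids (tumor PDC, HUVEC, MSC) treated with POLQ inhibitor combinations; where Cmax unknown, highest tested concentration 10 microM, except SN-38 at 1 microM.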

[1] = second compound 0.0316 µM, first compound 0.0316 µM
[2] = second compound 0.0316 µM, first compound 0.1 µM
[3] = second compound 0.0316 µM, first compound 0.316 µM
[4] = second compound 0.0316 µM, first compound 1 µM
[5] = second compound 0.0316 µM, first compound 3.16 µM
[6] = second compound 0.0316 µM, first compound 10 µM
[7] = second compound 0.1 µM, first compound 0.0316 µM
[8] = second compound 0.1 µM, first compound 0.1 µM
[9] = second compound 0.1 µM, first compound 0.316 µM
[10] = second compound 0.1 µM, first compound 1 µM
[11] = second compound 0.1 µM, first compound 3.16 µM
[12] = second compound 0.1 µM, first compound 10 µM
[13] = second compound 0.316 µM, first compound 0.0316 µM
[14] = second compound 0.316 µM, first compound 0.1 µM
[15] = second compound 0.316 µM, first compound 0.316 µM
[16] = second compound 0.316 µM, first compound 1 µM
[17] = second compound 0.316 µM, first compound 3.16 µM
[18] = second compound 0.316 µM, first compound 10 µM
[19] = second compound 1 µM, first compound 0.0316 µM
[20] = second compound 1 µM, first compound 0.1 µM
[21] = second compound 1 µM, first compound 0.316 µM
[22] = second compound 1 µM, first compound 1 µM
[23] = second compound 1 µM, first compound 3.16 µM
[24] = second compound 1 µM, first compound 10 µM
[25] = second compound 3.16 µM, first compound 0.0316 µM
[26] = second compound 3.16 µM, first compound 0.1 µM
[27] = second compound 3.16 µM, first compound 0.316 µM
[28] = second compound 3.16 µM, first compound 1 µM
[29] = second compound 3.16 µM, first compound 3.16 µM
[30] = second compound 3.16 µM, first compound 10 µM
[31] = second compound 10 µM, first compound 0.0316 µM
[32] = second compound 10 µM, first compound 0.1 µM
[33] = second compound 10 µM, first compound 0.316 µM
[34] = second compound 10 µM, first compound 1 µM
[35] = second compound 10 µM, first compound 3.16 µM
[36] = second compound 10 µM, first compound 10 µM
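Also: spheroids exposed to compounds for seven days before readout.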

SMILES: O=C(Nc1ccc(O)c(NS(=O)(=O)c2ccc(F)cc2)c1)c1ccc(-c2ccccc2)cc1 + Nc1ccc(C#CCN(C(=O)Cc2ncc(C(F)(F)F)cc2C(F)(F)F)c2ccc(F)cc2)nn1
- IC50 (second compound 0.0316 µM): > 10 µM
- IC50 (second compound 0.1 µM): > 10 µM
- IC50 (second compound 0.316 µM): > 10 µM
- IC50 (second compound 1 µM): > 10 µM
- IC50 (second compound 3.16 µM): > 10 µM
- IC50 (second compound 10 µM): > 10 µM
- viability, T/C [1]: 118%
- viability, T/C [2]: 105%
- viability, T/C [3]: 96.8%
- viability, T/C [4]: 114%
- viability, T/C [5]: 135%
- viability, T/C [6]: 87.8%
- viability, T/C [7]: 98.3%
- viability, T/C [8]: 123%
- viability, T/C [9]: 86.3%
- viability, T/C [10]: 118%
- viability, T/C [11]: 131%
- viability, T/C [12]: 94.7%
- viability, T/C [13]: 103%
- viability, T/C [14]: 113%
- viability, T/C [15]: 123%
- viability, T/C [16]: 114%
- viability, T/C [17]: 130%
- viability, T/C [18]: 106%
- viability, T/C [19]: 101%
- viability, T/C [20]: 109%
- viability, T/C [21]: 83.5%
- viability, T/C [22]: 109%
- viability, T/C [23]: 131%
- viability, T/C [24]: 91.9%
- viability, T/C [25]: 94.4%
- viability, T/C [26]: 98%
- viability, T/C [27]: 91%
- viability, T/C [28]: 99.7%
- viability, T/C [29]: 111%
- viability, T/C [30]: 106%
- viability, T/C [31]: 87.9%
- viability, T/C [32]: 82.4%
- viability, T/C [33]: 102%
- viability, T/C [34]: 105%
- viability, T/C [35]: 94.3%
- viability, T/C [36]: 87.9%

SMILES: CCc1cc2c(N3CCc4c(cc(Cn5ccnc5)cc4-c4cn(C)nc4C(F)(F)F)C3=O)ccnc2c(OC)n1 + Cc1cccc(N(C)C(=O)C2C(O)CCN2c2nc(C)cc(C(F)(F)F)c2C#N)c1
- IC50 (second compound 0.0316 µM): > 10 µM
- IC50 (second compound 0.1 µM): > 10 µM
- IC50 (second compound 0.316 µM): > 10 µM
- IC50 (second compound 1 µM): > 10 µM
- IC50 (second compound 3.16 µM): > 10 µM
- IC50 (second compound 10 µM): > 10 µM
- viability, T/C [1]: 90.4%
- viability, T/C [2]: 101%
- viability, T/C [3]: 78.6%
- viability, T/C [4]: 115%
- viability, T/C [5]: 138%
- viability, T/C [6]: 126%
- viability, T/C [7]: 98.6%
- viability, T/C [8]: 90%
- viability, T/C [9]: 105%
- viability, T/C [10]: 99.6%
- viability, T/C [11]: 119%
- viability, T/C [12]: 124%
- viability, T/C [13]: 119%
- viability, T/C [14]: 102%
- viability, T/C [15]: 80.3%
- viability, T/C [16]: 92.8%
- viability, T/C [17]: 130%
- viability, T/C [18]: 104%
- viability, T/C [19]: 86.7%
- viability, T/C [20]: 105%
- viability, T/C [21]: 90.6%
- viability, T/C [22]: 110%
- viability, T/C [23]: 141%
- viability, T/C [24]: 104%
- viability, T/C [25]: 107%
- viability, T/C [26]: 82.1%
- viability, T/C [27]: 104%
- viability, T/C [28]: 103%
- viability, T/C [29]: 122%
- viability, T/C [30]: 118%
- viability, T/C [31]: 97.8%
- viability, T/C [32]: 90.6%
- viability, T/C [33]: 110%
- viability, T/C [34]: 132%
- viability, T/C [35]: 127%
- viability, T/C [36]: 144%
